Assay results taken from ChEMBL document CHEMBL5143758, “2-Amino-1,3,4-thiadiazoles as Glutaminyl Cyclases Inhibitors Increase Phagocytosis through Modification of CD47-SIRPα Checkpoint” (ACS Med Chem Lett, 2022).

Experiments:
[1] = biological target: Glutaminyl-peptide cyclotransferase (Homo sapiens, UniProt Q16769)
Description: Inhibition of recombinant human QC using H-Gln-AMC hydrobromide as fluorogenic substrate incubated for 6 hrs by fluorometric microplate reader analysis

[2] = biological target: Glutaminyl-peptide cyclotransferase-like protein (Homo sapiens, UniProt Q9NXS2); assay: Inhibition of recombinant human isoQC using H-Gln-AMC hydrobromide as fluorogenic substrate incubated for 6 hrs by fluorometric microplate reader analysis
Glutaminyl-peptide cyclotransferase-like protein, sequence (Q9NXS2 whole entry): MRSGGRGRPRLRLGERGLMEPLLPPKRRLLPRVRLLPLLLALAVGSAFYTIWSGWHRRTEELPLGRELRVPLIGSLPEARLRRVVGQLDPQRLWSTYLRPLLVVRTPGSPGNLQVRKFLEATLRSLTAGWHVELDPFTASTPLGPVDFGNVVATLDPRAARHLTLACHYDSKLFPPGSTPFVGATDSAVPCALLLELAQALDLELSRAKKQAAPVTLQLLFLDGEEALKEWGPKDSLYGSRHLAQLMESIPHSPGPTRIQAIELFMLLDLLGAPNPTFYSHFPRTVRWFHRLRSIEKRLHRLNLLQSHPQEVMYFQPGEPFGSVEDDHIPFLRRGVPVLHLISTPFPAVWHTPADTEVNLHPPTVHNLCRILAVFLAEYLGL

Glutaminyl-peptide cyclotransferase, sequence (Q16769 whole entry): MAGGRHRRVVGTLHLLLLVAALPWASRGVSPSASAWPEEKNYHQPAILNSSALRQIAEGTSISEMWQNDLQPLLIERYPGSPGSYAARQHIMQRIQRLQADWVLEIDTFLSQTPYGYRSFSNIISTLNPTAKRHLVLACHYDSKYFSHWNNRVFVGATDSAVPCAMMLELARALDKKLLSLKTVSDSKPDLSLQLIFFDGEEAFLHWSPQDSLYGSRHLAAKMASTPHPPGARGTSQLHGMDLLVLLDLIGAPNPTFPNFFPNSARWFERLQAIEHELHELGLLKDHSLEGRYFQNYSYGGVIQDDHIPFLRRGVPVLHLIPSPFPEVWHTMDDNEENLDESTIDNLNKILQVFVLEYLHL

Compound | IC50 [1] [µM] | IC50 [2] [µM]
Cc1c[nH]cn1 | 110 | –
COc1ccc(NC(=S)NCCCn2ccnc2)cc1OC | – | 0.351
Cc1cncn1-c1ccccc1 | 144 | –
Sc1nc2ccccc2[nH]1 [2-MERCAPTOBENZIMIDAZOLE] | 551 | –
Oc1ccccc1O [CATECHOL] | 5 | –
Oc1cccc2cccnc12 [OXYQUINOLINE] | 208 | –
O=C1CNC(=S)N1 [THIOHYDANTOIN] | 390 | –

Now from value to compound:

IC50 [1] [µM] | IC50 [2] [µM] | Compound
203 | – | O=C(O)c1ccc2cccc(O)c2n1
772 | – | Cn1cccc(O)c1=O
232 | – | O=c1ccocc1O
